# Laboratory results from the NIST ThermoML archive (doi:10.1016/j.fluid.2006.09.019).
# ± gives the expanded uncertainty stated by the source.
# Details: Liquid
smiles,measurement,setting,value
COC(=O)CO [methyl hydroxyethanoate],vapor or sublimation pressure,293.23 K,0.4864 ± 0.077 kPa
same,vapor or sublimation pressure,303.17 K,0.8459 ± 0.12 kPa
same,vapor or sublimation pressure,313.27 K,1.409 ± 0.16 kPa
same,vapor or sublimation pressure,323.12 K,2.311 ± 0.18 kPa
same,vapor or sublimation pressure,333.28 K,3.738 ± 0.22 kPa
same,vapor or sublimation pressure,343.26 K,5.905 ± 0.27 kPa
same,vapor or sublimation pressure,353.25 K,9.292 ± 0.36 kPa
